{
  "source": "paper PMC7069944",
  "about": "“Amino acid levels determine metabolism and CYP450 function of hepatocytes and hepatoma cell lines” (Nature Communications, 2020)",
  "settings_in_all_cases": "repeat exposure",
  "key": {"HC6X": {"test_system": "HC6X", "assay": "Repeated-exposure DILI training compounds, resazurin conversion, HC6X", "protocol": "(§1) To evaluate the ability to predict hepatotoxicity, we adapted the differentiation assays to a 384-well format. […] As a readout, we evaluated cell viability by resazurin conversion and correlated the results to therapeutic doses (Cmax values).\n(§2) PSCs were differentiated in a 384-well format. […] As a negative control, 41 wells were left untreated. HepG2 were seeded at 40,000 cells per well. […] Cells were fixed with 4% PFA. […] Drugs were administrated after 8 h of attachment."}, "HepG2": {"test_system": "HepG2", "assay": "Repeated-exposure DILI training compounds, resazurin conversion, HepG2", "protocol": "as §1, §2"}, "HC3X": {"test_system": "HC3X", "assay": "Repeated-exposure DILI training compounds, resazurin conversion, HC3X", "protocol": "as §1, §2"}, "HLC": {"test_system": "HLC", "assay": "Repeated-exposure DILI training compounds, resazurin conversion, HLC", "protocol": "as §1, §2"}},
  "note": "Several values for one entry are separate records, joined by “and”; a condition that tells them apart may be missing. Equal values may be shown once.",
  "data": [
    {"smiles": "CN(C)C(=N)N=C(N)N", "note": "[metformin]", "values": [
      {"measurement": "% resazurin conversion", "setting": "HC6X; HC6X AAGLY D40, 3 uM", "value": "75.6% and 127.9% and 120.9% and 66.8% and 78.3% and 77.4%"},
      {"measurement": "% resazurin conversion", "setting": "HC6X; HC6X AAGLY D40, 10 uM", "value": "91.8% and 85.1% and 137.3% and 90.8% and 71.9% and 90%"},
      {"measurement": "% resazurin conversion", "setting": "HC6X; HC6X AAGLY D40, 30 uM", "value": "64% and 86.6% and 97% and 73.8% and 121% and 127.4%"},
      {"measurement": "% resazurin conversion", "setting": "HC6X; HC6X AAGLY D40, 50 uM", "value": "73.2% and 144.6% and 104.7% and 102.8% and 73.1% and 92.5%"},
      {"measurement": "% resazurin conversion", "setting": "HC6X; HC6X AAGLY D40, 100 uM", "value": "106.4% and 149.7% and 103.6% and 154.2% and 106.5% and 116.8%"},
      {"measurement": "% resazurin conversion", "setting": "HC6X; HC6X AAGLY D40, 300 uM", "value": "112.1% and 78.2% and 96.7% and 122.1% and 97.1% and 124%"},
      {"measurement": "% resazurin conversion", "setting": "HC6X; HC6X AAGLY D40, 1200 uM", "value": "183.8% and 127.4% and 126.7% and 100% and 123.1%"},
      {"measurement": "% resazurin conversion", "setting": "HC6X; HC6X AAGLY D40 Remove dox, 3 uM", "value": "170.2% and 195.5% and 109.9% and 145.7% and 191.7% and 155.1%"},
      {"measurement": "% resazurin conversion", "setting": "HC6X; HC6X AAGLY D40 Remove dox, 5 uM", "value": "151.1% and 130.1% and 149.6% and 123.6% and 100% and 119.7%"},
      {"measurement": "% resazurin conversion", "setting": "HC6X; HC6X AAGLY D40 Remove dox, 10 uM", "value": "137.7% and 116.6% and 122.1% and 87.2% and 162.4%"},
      {"measurement": "% resazurin conversion", "setting": "HC6X; HC6X AAGLY D40 Remove dox, 30 uM", "value": "189% and 104.3% and 104.5% and 116.4% and 109.9% and 115%"},
      {"measurement": "% resazurin conversion", "setting": "HC6X; HC6X AAGLY D40 Remove dox, 50 uM", "value": "175.2% and 137% and 132.8% and 158.7% and 156.7% and 106.3%"},
      {"measurement": "% resazurin conversion", "setting": "HC6X; HC6X AAGLY D40 Remove dox, 100 uM", "value": "169.7% and 178.1% and 127.2% and 203.2% and 156.7% and 201.6%"},
      {"measurement": "% resazurin conversion", "setting": "HC6X; HC6X AAGLY D40 Remove dox, 300 uM", "value": "161.6% and 125.1% and 195.3% and 144.9% and 140.1%"},
      {"measurement": "% resazurin conversion", "setting": "HC6X; HC6X AAGLY D40 Remove dox, 600 uM", "value": "164.3% and 170.2% and 157.3% and 178.7% and 172.2% and 213.4%"},
      {"measurement": "% resazurin conversion", "setting": "HC6X; HC6X AAGLY D40 Remove dox, 1200 uM", "value": "129.6% and 183.1% and 151.5% and 181.6% and 201.4% and 154.1%"},
      {"measurement": "% resazurin conversion", "setting": "HepG2; HepG2 AAGLY D30, 3 uM", "value": "106.5% and 83.4% and 85.8% and 89.2% and 108.4% and 105.4%"},
      {"measurement": "% resazurin conversion", "setting": "HepG2; HepG2 AAGLY D30, 5 uM", "value": "88% and 69.4% and 79.7% and 91.5% and 76.9% and 122.8%"},
      {"measurement": "% resazurin conversion", "setting": "HepG2; HepG2 AAGLY D30, 10 uM", "value": "92.9% and 78.4% and 78.2% and 87.4% and 93.3%"},
      {"measurement": "% resazurin conversion", "setting": "HepG2; HepG2 AAGLY D30, 30 uM", "value": "87% and 68% and 60.1% and 90.4% and 65.8% and 86.5%"},
      {"measurement": "% resazurin conversion", "setting": "HepG2; HepG2 AAGLY D30, 50 uM", "value": "88% and 78.4% and 75.6% and 85.4% and 68.8% and 94.1%"},
      {"measurement": "% resazurin conversion", "setting": "HepG2; HepG2 AAGLY D30, 100 uM", "value": "77.9% and 69.4% and 77.6% and 78.3% and 71.2% and 86.1%"},
      {"measurement": "% resazurin conversion", "setting": "HepG2; HepG2 AAGLY D30, 300 uM", "value": "86.3% and 86.2% and 78.9% and 85.6% and 74.5% and 86.7%"},
      {"measurement": "% resazurin conversion", "setting": "HepG2; HepG2 AAGLY D30, 600 uM", "value": "84.6% and 71.8% and 75.9% and 95.3% and 64.4% and 77.4%"},
      {"measurement": "% resazurin conversion", "setting": "HepG2; HepG2 AAGLY D30, 1200 uM", "value": "73.9% and 67.2% and 67.9% and 98.6% and 62.2% and 57.6%"},
      {"measurement": "% resazurin conversion", "setting": "HepG2; HepG2 CTL D7, 3 uM", "value": 101.7, "unit": "%"},
      {"measurement": "% resazurin conversion", "setting": "HepG2; HepG2 CTL D7, 5 uM", "value": "111.2% and 104.6% and 117.2% and 107.8% and 111% and 112.7%"},
      {"measurement": "% resazurin conversion", "setting": "HepG2; HepG2 CTL D7, 10 uM", "value": "105.8% and 104.6% and 92.9% and 101.2% and 94.9% and 100.3%"},
      {"measurement": "% resazurin conversion", "setting": "HepG2; HepG2 CTL D7, 30 uM", "value": "99.1% and 100.4% and 105.9% and 109.1% and 102.2%"},
      {"measurement": "% resazurin conversion", "setting": "HepG2; HepG2 CTL D7, 50 uM", "value": "97.6% and 97.7% and 100.3% and 99.5% and 102% and 100.6%"},
      {"measurement": "% resazurin conversion", "setting": "HepG2; HepG2 CTL D7, 100 uM", "value": "101.5% and 103.6% and 107.4% and 101.8% and 103.4% and 105%"},
      {"measurement": "% resazurin conversion", "setting": "HepG2; HepG2 CTL D7, 300 uM", "value": "89.7% and 83.5% and 88.5% and 95.8% and 93.1% and 96.3%"},
      {"measurement": "% resazurin conversion", "setting": "HepG2; HepG2 CTL D7, 600 uM", "value": "92.6% and 88.6% and 89.1% and 90.3% and 94.1% and 93.8%"},
      {"measurement": "% resazurin conversion", "setting": "HepG2; HepG2 CTL D7, 1200 uM", "value": "80.9% and 84% and 84.2% and 85.5% and 84.4%"},
      {"measurement": "% resazurin conversion", "setting": "HC3X; HC3X AAGLY D40, 3 uM", "value": "107.4% and 112.9% and 102.8% and 86.5% and 93.5% and 86.7%"},
      {"measurement": "% resazurin conversion", "setting": "HC3X; HC3X AAGLY D40, 5 uM", "value": "117.3% and 115.7% and 110.3% and 104.4% and 106.7% and 61.4%"},
      {"measurement": "% resazurin conversion", "setting": "HC3X; HC3X AAGLY D40, 10 uM", "value": "108.5% and 87.5% and 112.1% and 74.4% and 97.6% and 102.3%"},
      {"measurement": "% resazurin conversion", "setting": "HC3X; HC3X AAGLY D40, 30 uM", "value": "105.4% and 101.2% and 96.4% and 131.5% and 86.6% and 96.2%"},
      {"measurement": "% resazurin conversion", "setting": "HC3X; HC3X AAGLY D40, 50 uM", "value": "110.2% and 114.4% and 75% and 103.1% and 92.6% and 99.9%"},
      {"measurement": "% resazurin conversion", "setting": "HC3X; HC3X AAGLY D40, 300 uM", "value": "121.9% and 148% and 124.4% and 102.2% and 122.5% and 91.9%"},
      {"measurement": "% resazurin conversion", "setting": "HC3X; HC3X AAGLY D40, 600 uM", "value": "150.2% and 156.7% and 145.2% and 144.4% and 152.7% and 115%"},
      {"measurement": "% resazurin conversion", "setting": "HC3X; HC3X AAGLY D40, 1200 uM", "value": "124.1% and 158.2% and 141.5% and 92.2% and 126.1% and 100%"},
      {"measurement": "% resazurin conversion", "setting": "HLC; HLC AAGLY D40, 3 uM", "value": "117.8% and 180.2% and 192.1% and 138.7% and 131.9% and 161.2%"},
      {"measurement": "% resazurin conversion", "setting": "HLC; HLC AAGLY D40, 10 uM", "value": "85.1% and 137.4% and 97.3% and 121% and 128.3% and 141.7%"},
      {"measurement": "% resazurin conversion", "setting": "HLC; HLC LDM D40, 3 uM", "value": "115.5% and 119.8% and 128.3% and 105.8% and 132.2% and 110.8%"},
      {"measurement": "% resazurin conversion", "setting": "HLC; HLC LDM D40, 10 uM", "value": "112.2% and 115.2% and 101.7% and 107.6% and 122.7% and 95.8%"},
      {"measurement": "% resazurin conversion", "setting": "HLC; HLC LDM D40, 30 uM", "value": "101.1% and 127.7% and 123.7% and 100.6% and 111.7% and 97.3%"},
      {"measurement": "% resazurin conversion", "setting": "HLC; HLC LDM D40, 50 uM", "value": "69.5% and 123.5% and 118.7% and 111% and 112.5% and 97.1%"},
      {"measurement": "% resazurin conversion", "setting": "HLC; HLC LDM D40, 100 uM", "value": "130.3% and 131.7% and 140% and 109.2% and 99.5% and 135.5%"},
      {"measurement": "% resazurin conversion", "setting": "HLC; HLC LDM D40, 300 uM", "value": "131.8% and 130.1% and 119.9% and 132.8% and 107.9% and 132.1%"},
      {"measurement": "% resazurin conversion", "setting": "HLC; HLC LDM D40, 600 uM", "value": "142.1% and 137.1% and 121.7% and 130.5% and 134.1% and 94.8%"},
      {"measurement": "% resazurin conversion", "setting": "HLC; HLC LDM D40, 1200 uM", "value": "117% and 113% and 129.7% and 145.7% and 140.5% and 102.5%"}
    ]}
  ]
}
